According to patent publication US8420675B2, “Aminotetrahydroindazoloacetic acids” (Hoffmann-La Roche Inc., priority 2008, dated 2013):

The molecules below were run against T1, human CRTH2 (Homo sapiens, UniProt Q9Y5Y4) (assay: Human CRTH2 Receptor Binding Assay (whole cell, [3H]ramatroban competition)). Conditions: CHO-K1 cells expressing human CRTH2 and G-alpha16; 20 nM [3H]ramatroban; 1 hour, room temperature.
T1 construct: expressed in transfected cells
T1 sequence (Q9Y5Y4 1-395): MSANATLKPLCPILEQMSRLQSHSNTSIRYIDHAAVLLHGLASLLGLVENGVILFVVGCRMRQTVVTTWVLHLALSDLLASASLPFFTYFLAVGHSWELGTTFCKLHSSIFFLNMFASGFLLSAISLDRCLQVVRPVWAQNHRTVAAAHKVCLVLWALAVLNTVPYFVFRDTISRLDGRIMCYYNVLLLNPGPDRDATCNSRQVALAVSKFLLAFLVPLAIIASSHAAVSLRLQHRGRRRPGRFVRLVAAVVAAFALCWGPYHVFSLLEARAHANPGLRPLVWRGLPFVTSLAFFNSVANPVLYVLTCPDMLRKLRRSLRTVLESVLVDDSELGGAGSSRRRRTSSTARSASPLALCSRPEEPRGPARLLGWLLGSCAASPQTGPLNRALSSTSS
In short: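 CHO-K1 cells stably co-expressing human CRTH2 and G-alpha16, 1.5×10^5 per reaction, incubated 1 hour at room temperature with 20 nM [3H]ramatroban in PBS containing 10 mM MgCl2 and 0.06% BSA. Non-specific binding defined with 10 μM 15(R)-15-methyl PGD2. IC50 from 7 concentrations by 4-parameter logistic fit of specific binding inhibition.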
CC(=O)Nc1ccc(Oc2ccc(S(=O)(=O)N(C)[C@@H]3CCCc4c3cnn4CC(=O)O)cc2Cl)cc1 [Example 9-27a, ((R)-4-{[4-(4-Acetylamino-phenoxy)-3-chloro-benzenesulfonyl]-methyl-amino}-4,5,6,7-tetrahydro-indazol-1-yl)-acetic acid] gave an IC50 of 49.1 nM.
In the case of CN([C@@H]1CCCc2c1cnn2CC(=O)O)S(=O)(=O)c1ccc(Oc2ccc(OC(F)(F)F)cc2)c(Cl)c1 [Example 9-28a, ((R)-4-{[3-Chloro-4-(4-trifluoromethoxy-phenoxy)-benzenesulfonyl]-methyl-amino}-4,5,6,7-tetrahydro-indazol-1-yl)-acetic acid], the IC50 is reported as 11.8 nM.
CN([C@@H]1CCCc2c1cnn2CC(=O)O)S(=O)(=O)c1cc(F)c(Oc2ccc(F)cc2)cc1Cl [Example 9-29a, ((R)-4-{[2-Chloro-5-fluoro-4-(4-fluoro-phenoxy)-benzenesulfonyl]-methyl-amino}-4,5,6,7-tetrahydro-indazol-1-yl)-acetic acid] showed an IC50 of 151 nM.
With CN([C@@H]1CCCc2c1cnn2CC(=O)O)S(=O)(=O)c1cc(Cl)c(Oc2ccc(F)cc2)cc1F [Example 9-30a, ((R)-4-{[5-Chloro-2-fluoro-4-(4-fluoro-phenoxy)-benzenesulfonyl]-methyl-amino}-4,5,6,7-tetrahydro-indazol-1-yl)-acetic acid] the IC50 was 37.7 nM.
In the case of COc1ccc(Oc2ccc(S(=O)(=O)N(C)[C@@H]3CCCc4c3cnn4CC(=O)O)cc2Cl)cc1 [Example 9-31a, ((R)-4-{[3-Chloro-4-(4-methoxy-phenoxy)-benzenesulfonyl]-methyl-amino}-4,5,6,7-tetrahydro-indazol-1-yl)-acetic acid], the IC50 is reported as 6.8 nM.
For CN([C@@H]1CCCc2c1cnn2CC(=O)O)S(=O)(=O)c1ccc(Oc2ccc(F)cc2F)c(Cl)c1 [Example 9-32a, ((R)-4-{[3-Chloro-4-(2,4-difluoro-phenoxy)-benzenesulfonyl]-methyl-amino}-4,5,6,7-tetrahydro-indazol-1-yl)-acetic acid], the IC50 was 7.6 nM.
For CN([C@@H]1CCCc2c1cnn2CC(=O)O)S(=O)(=O)c1ccc(Oc2c(F)cccc2F)c(Cl)c1 [Example 9-33a, ((R)-4-{[3-Chloro-4-(2,6-difluoro-phenoxy)-benzenesulfonyl]-methyl-amino}-4,5,6,7-tetrahydro-indazol-1-yl)-acetic acid], the IC50 was 10.6 nM.
With CN([C@@H]1CCCc2c1cnn2CC(=O)O)S(=O)(=O)c1ccc(Oc2ccc(C#N)cc2)c(Cl)c1 [Example 9-34a, ((R)-4-{[3-Chloro-4-(4-cyano-phenoxy)-benzenesulfonyl]-methyl-amino}-4,5,6,7-tetrahydro-indazol-1-yl)-acetic acid] the IC50 was 4.6 nM.
For Cc1cc(S(=O)(=O)N(C)[C@@H]2CCCc3c2cnn3CC(=O)O)ccc1Oc1ccc(F)cc1 [Example 9-35a, ((R)-4-{[4-(4-Fluoro-phenoxy)-3-methyl-benzenesulfonyl]-methyl-amino}-4,5,6,7-tetrahydro-indazol-1-yl)-acetic acid], the IC50 was 17.1 nM.
With CN([C@@H]1CCCc2c1cnn2CC(=O)O)S(=O)(=O)c1ccc(Oc2ccc(C(N)=O)cc2)c(Cl)c1 [Example 9-36a, ((R)-4-{[4-(4-Carbamoyl-phenoxy)-3-chloro-benzenesulfonyl]-methyl-amino}-4,5,6,7-tetrahydro-indazol-1-yl)-acetic acid] the IC50 was 23.1 nM.
With CN([C@@H]1CCCc2c1cnn2CC(=O)O)S(=O)(=O)c1ccc(Oc2ccccc2F)c(Cl)c1 [Example 9-37a, ((R)-4-{[3-Chloro-4-(2-fluoro-phenoxy)-benzenesulfonyl]-methyl-amino}-4,5,6,7-tetrahydro-indazol-1-yl)-acetic acid] the IC50 was 14.8 nM.
With Cc1cc(F)ccc1Oc1ccc(S(=O)(=O)N(C)[C@@H]2CCCc3c2cnn3CC(=O)O)cc1Cl [Example 9-38a, ((R)-4-{[3-Chloro-4-(4-fluoro-2-methyl-phenoxy)-benzenesulfonyl]-methyl-amino}-4,5,6,7-tetrahydro-indazol-1-yl)-acetic acid] the IC50 was 8 nM.
For CN([C@@H]1CCCc2c1cnn2CC(=O)O)S(=O)(=O)c1cc(F)c(Oc2ccc(F)cc2)c(F)c1 [Example 9-39a, ((R)-4-{[3,5-Difluoro-4-(4-fluoro-phenoxy)-benzenesulfonyl]-methyl-amino}-4,5,6,7-tetrahydro-indazol-1-yl)-acetic acid], the IC50 was 10.4 nM.
Work on CN([C@@H]1CCCc2c1cnn2CC(=O)O)S(=O)(=O)c1ccc(Oc2ccc(F)cc2)c(Br)c1 [Example 9-40a, ((R)-4-{[3-Bromo-4-(4-fluoro-phenoxy)-benzenesulfonyl]-methyl-amino}-4,5,6,7-tetrahydro-indazol-1-yl)-acetic acid] yielded an IC50 of 7.9 nM.
With CN([C@@H]1CCCc2c1cnn2CC(=O)O)S(=O)(=O)c1ccc(Oc2ccc(F)cc2)c(C(F)(F)F)c1 [Example 9-41a, ((R)-4-{[4-(4-Fluoro-phenoxy)-3-trifluoromethyl-benzenesulfonyl]-methyl-amino}-4,5,6,7-tetrahydro-indazol-1-yl)-acetic acid] the IC50 was 7.5 nM.
For CN([C@@H]1CCCc2c1cnn2CC(=O)O)S(=O)(=O)c1cc(Oc2ccc(F)cc2)cc(C(F)(F)F)c1 [Example 9-42a, ((R)-4-{[3-(4-Fluoro-phenoxy)-5-trifluoromethyl-benzenesulfonyl]-methyl-amino}-4,5,6,7-tetrahydro-indazol-1-yl)-acetic acid], the IC50 was 22.6 nM.
COc1ccc(-c2ccc(S(=O)(=O)NC3CCCc4c3cnn4CC(=O)O)cc2)cc1 (stereo not shown) [Example 10-1a, [4-(4′-Methoxy-biphenyl-4-sulfonylamino)-4,5,6,7-tetrahydro-indazol-1-yl]-acetic acid] was tested, and the IC50 was 215 nM.
In the case of O=C(O)Cn1ncc2c1CCCC2NS(=O)(=O)c1ccc(-c2cccnc2)cc1 (stereo not shown) [Example 10-2a, [4-(4-Pyridin-3-yl-benzenesulfonylamino)-4,5,6,7-tetrahydro-indazol-1-yl]-acetic acid], the IC50 is reported as 371 nM.
Work on CCOc1ccc(-c2ccc(S(=O)(=O)NC3CCCc4c3cnn4CC(=O)O)cc2)cc1 (stereo not shown) [Example 10-3a, [4-(4′-Ethoxy-biphenyl-4-sulfonylamino)-4,5,6,7-tetrahydro-indazol-1-yl]-acetic acid] yielded an IC50 of 194 nM.
O=C(O)Cn1ncc2c1CCCC2NS(=O)(=O)c1ccc(-c2ccccc2Cl)cc1 (stereo not shown) [Example 10-4a, [4-(2′-Chloro-biphenyl-4-sulfonylamino)-4,5,6,7-tetrahydro-indazol-1-yl]-acetic acid] showed an IC50 of 257 nM.
With COc1ccc(-c2cccc(S(=O)(=O)NC3CCCc4c3cnn4CC(=O)O)c2)cc1 (stereo not shown) [Example 10-5a, [4-(4′-Methoxy-biphenyl-3-sulfonylamino)-4,5,6,7-tetrahydro-indazol-1-yl]-acetic acid] the IC50 was 369 nM.
For O=C(O)Cn1ncc2c1CCCC2NS(=O)(=O)c1ccc(-c2ccc(Cl)cc2)cc1 (stereo not shown) [Example 10-6a, [4-(4′-Chloro-biphenyl-4-sulfonylamino)-4,5,6,7-tetrahydro-indazol-1-yl]-acetic acid], the IC50 was 207 nM.
O=C(O)Cn1ncc2c1CCCC2NS(=O)(=O)c1ccc(-c2ccc(F)cc2)cc1 (stereo not shown) [Example 10-7a, [4-(4′-Fluoro-biphenyl-4-sulfonylamino)-4,5,6,7-tetrahydro-indazol-1-yl]-acetic acid] was tested, and the IC50 was 300 nM.
For O=C(O)Cn1ncc2c1CCCC2NS(=O)(=O)c1ccc(-c2ccccc2)c(F)c1 (stereo not shown) [Example 10-8a, [4-(2-Fluoro-biphenyl-4-sulfonylamino)-4,5,6,7-tetrahydro-indazol-1-yl]-acetic acid], the IC50 was 412 nM.
For O=C(O)Cn1ncc2c1CCCC2NS(=O)(=O)c1ccc(-c2ccccc2)c(C(F)(F)F)c1 (stereo not shown) [Example 10-9a, [4-(2-Trifluoromethyl-biphenyl-4-sulfonylamino)-4,5,6,7-tetrahydro-indazol-1-yl]-acetic acid], the IC50 was 71.6 nM.
With COc1cccc(-c2ccc(S(=O)(=O)NC3CCCc4c3cnn4CC(=O)O)cc2)c1 (stereo not shown) [Example 10-10a, [4-(3′-Methoxy-biphenyl-4-sulfonylamino)-4,5,6,7-tetrahydro-indazol-1-yl]-acetic acid] the IC50 was 370 nM.
N#Cc1cccc(-c2ccc(S(=O)(=O)NC3CCCc4c3cnn4CC(=O)O)cc2)c1 (stereo not shown) [Example 10-11a, [4-(3′-Cyano-biphenyl-4-sulfonylamino)-4,5,6,7-tetrahydro-indazol-1-yl]-acetic acid] showed an IC50 of 321 nM.
Work on O=C(O)Cn1ncc2c1CCCC2NS(=O)(=O)c1cccc(-c2ccccc2Cl)c1 (stereo not shown) [Example 10-12a, [4-(2′-Chloro-biphenyl-3-sulfonylamino)-4,5,6,7-tetrahydro-indazol-1-yl]-acetic acid] yielded an IC50 of 311 nM.
O=C(O)Cn1ncc2c1CCC[C@H]2NS(=O)(=O)c1ccc(-c2cccc(Cl)c2)cc1 [Example 10-13a, [(R)-4-(3′-Chloro-biphenyl-4-sulfonylamino)-4,5,6,7-tetrahydro-indazol-1-yl]-acetic acid] was tested, and the IC50 was 153 nM.
For O=C(O)Cn1ncc2c1CCCC2NS(=O)(=O)c1ccc(-c2cccc(OC(F)(F)F)c2)cc1 (stereo not shown) [Example 10-14a, [4-(3′-Trifluoromethoxy-biphenyl-4-sulfonylamino)-4,5,6,7-tetrahydro-indazol-1-yl]-acetic acid], the IC50 was 58.1 nM.
Work on O=C(O)Cn1ncc2c1CCCC2NS(=O)(=O)c1ccc(-c2ccc(F)c(Cl)c2)cc1 (stereo not shown) [Example 10-15a, [4-(3′-Chloro-4′-fluoro-biphenyl-4-sulfonylamino)-4,5,6,7-tetrahydro-indazol-1-yl]-acetic acid] yielded an IC50 of 466 nM.
